The source of these data is US11339157B1, “4H-pyrrolo[3,2-c]pyridin-4-one derivatives” (Bayer Aktiengesellschaft, priority 2017, dated 2022).

Usually IC50 stands for the point on the concentration scale where inhibition reaches its midpoint.

Test [1] has as its target EGFR ins SVD (insertion of SVD between D770 and N771) (Homo sapiens, UniProt P00533, INS767SVD). The experiment in a line: Exon 20-Mutant-EGFR(D770_N771insSVD) kinase assay (TR-FRET). The test is classed as biochemical. Particulars: Table 9; read-out: mutEGFR (D770_N771insSVD) kinase assay IC50. On the technique in general: In TR-FRET formats the signal depends on donor and acceptor labels being close together.

For the next test, the system named is Ba/F3-EGFR-insSVD cells. Briefly: Proliferation assay in BA/F3 (ins SVD) cells (Cell Titer-Glo). The test is classed as cell-based. The method, then: (§1) Cellular Data Description (WT, insSVD, Ins ASV)
(§2) Plates were incubated at 37° C. for 48 h. Retrovirus was harvested by filtering the media supernatant through a 0.45 μm filter.
(§3) Ba/F3 cells purchased from DSMZ were grown in RPMI+10% FBS+10 ng/mL IL-3 and infected with filtered retroviral supernatant at a 1:2 dilution. Polybrene was added to a concentration of 8 μg/mL, plates were spun for 90 min, and incubated overnight at 37° C. 2 μg/mL puromycin was added to the infected cells 24 h after infection and cells were continually grown in the presence of puromycin and 10 ng/mL IL-3. Following stably expressing Ba/F3 cell lines were generated: Ba/F3-EGFR-WT, Ba/F3-EGFR-insSVD.
(§4) The cells ectopically expressing WT EGFR were plated with 10 ng/mL Millipore Culture grade EGF. The cells ectopically expressing EGFR-insSVD were plated without EGF.
(§5) 100 nL of compound was added to each well using a 100 nL pin head, and plates were incubated at 37° C. for 48 h.
(§6) Cell viability was measured by adding 30 μL of Cell Titer-Glo Luminescent Cell Viability Reagent. Plates were sealed with Perkin Elmer Top-Seal, inverted several times to mix, and immediately centrifuged at 1000 rpm for 2 min. Plates were incubated in low light conditions for 8-10 min and luminescence was measured.

For a further test, the system named is Ba/F3-EGFR-WT cells. Briefly: Proliferation assay in BA/F3 (wild type) cells (Cell Titer-Glo). The test is classed as cell-based. Here is the method: as §1, §2, §3, §4, §5, §6
(In general: In ATP-based viability assays light output follows the ATP content of the culture.)

Setting [2] is: Mus musculus, BaF3, 48 h, Table 10, plated without EGF.
Where [3] appears, read: Mus musculus, BaF3, 48 h, Table 10, plated with 10 ng/mL EGF.
Where [4] appears, read: Mus musculus, BaF3, Table 10, plated without EGF, 48 h.
The mark [5] stands for this setting: Mus musculus, BaF3, Table 10, plated with 10 ng/mL EGF, 48 h.

SMILES strings stand for the structures. Where “and” joins values, the source holds several entries; their conditions need not be identical. Equal values may be shown once. Where a name gives a salt, the structure may show the parent alone.

Sequence of EGFR ins SVD (insertion of SVD between D770 and N771) (P00533 with tags, fused parts or gaps INS767SVD limits assumed): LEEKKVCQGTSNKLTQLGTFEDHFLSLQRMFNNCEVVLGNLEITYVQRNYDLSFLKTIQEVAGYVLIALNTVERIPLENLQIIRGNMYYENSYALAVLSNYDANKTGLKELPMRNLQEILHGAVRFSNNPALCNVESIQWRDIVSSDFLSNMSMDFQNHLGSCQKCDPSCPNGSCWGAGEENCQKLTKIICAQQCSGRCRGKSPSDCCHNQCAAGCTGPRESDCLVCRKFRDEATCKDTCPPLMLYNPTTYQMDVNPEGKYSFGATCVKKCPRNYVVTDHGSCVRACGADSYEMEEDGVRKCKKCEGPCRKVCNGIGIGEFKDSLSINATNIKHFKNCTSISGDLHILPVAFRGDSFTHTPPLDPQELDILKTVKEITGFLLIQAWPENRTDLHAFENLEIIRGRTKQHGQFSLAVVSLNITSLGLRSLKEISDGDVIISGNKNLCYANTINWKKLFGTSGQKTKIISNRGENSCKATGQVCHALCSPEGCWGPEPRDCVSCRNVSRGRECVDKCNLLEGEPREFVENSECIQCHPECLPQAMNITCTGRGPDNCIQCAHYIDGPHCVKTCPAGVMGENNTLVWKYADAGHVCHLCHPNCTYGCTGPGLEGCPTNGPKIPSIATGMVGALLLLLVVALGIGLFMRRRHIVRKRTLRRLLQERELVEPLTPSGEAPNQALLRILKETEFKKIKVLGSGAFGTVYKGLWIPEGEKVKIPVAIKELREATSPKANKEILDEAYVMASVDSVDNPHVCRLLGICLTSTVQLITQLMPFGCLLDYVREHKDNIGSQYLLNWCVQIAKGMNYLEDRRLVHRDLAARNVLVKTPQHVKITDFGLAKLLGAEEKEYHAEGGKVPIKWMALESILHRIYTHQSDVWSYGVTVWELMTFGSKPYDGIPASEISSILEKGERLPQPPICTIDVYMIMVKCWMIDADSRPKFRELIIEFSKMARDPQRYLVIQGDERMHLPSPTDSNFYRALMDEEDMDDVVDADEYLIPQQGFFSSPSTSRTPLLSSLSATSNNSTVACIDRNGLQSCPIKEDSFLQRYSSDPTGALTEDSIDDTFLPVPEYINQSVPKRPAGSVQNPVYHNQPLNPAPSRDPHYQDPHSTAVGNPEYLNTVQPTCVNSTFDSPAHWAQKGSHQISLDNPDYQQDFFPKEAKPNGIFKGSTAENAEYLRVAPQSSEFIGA

For the compound `COC(C)(C)COc1cnccc1-c1[nH]c2c(c1Nc1cc(F)ccc1C)C(=O)NCC2` [Example 45, 3-(5-fluoro-2-methylanilino)-2-[3-(2-methoxy-2-methylpropoxy)pyridin-4-yl]-1,5,6,7-tetrahydro-4H-pyrrolo[3,2-c]pyridin-4-one], the IC50 in test [1] was 0.319 nM; in the test on Ba/F3-EGFR-insSVD cells (setting [2]), 255 nM; with Ba/F3-EGFR-WT cells (setting [3]), 2490 nM.
Take `COc1c(F)cccc1Nc1c(-c2ccncc2OCCOC(C)(C)C)[nH]c2c1C(=O)NCC2` [Example 91, 2-[3-(2-tert-butoxyethoxy)pyridin-4-yl]-3-(3-fluoro-2-methoxyanilino)-1,5,6,7-tetrahydro-4H-pyrrolo[3,2-c]pyridin-4-one]: the values for the half-inhibitory concentration (IC50) (in test [1]; in the test with Ba/F3-EGFR-insSVD cells (setting [2]); in the test with Ba/F3-EGFR-WT cells (setting [3])) were 0.135 nM, 35.7 nM and 1100 nM, respectively.
For `COC(C)(C)COc1cnccc1-c1[nH]c2c(c1Nc1cc(F)cc(F)c1OC(F)F)C(=O)NCC2` [Example 43, 3-[2-(difluoromethoxy)-3,5-difluoroanilino]-2-[3-(2-methoxy-2-methylpropoxy)pyridin-4-yl]-1,5,6,7-tetrahydro-4H-pyrrolo[3,2-c]pyridin-4-one] the same measures were 0.1 nM, 117 nM and 1880 nM.
For the compound `COC(C)(C)COc1cnccc1-c1[nH]c2c(c1Nc1cccc(Cl)c1Cl)C(=O)NCC2` [Example 34, 3-(2,3-dichloroanilino)-2-[3-(2-methoxy-2-methylpropoxy)pyridin-4-yl]-1,5,6,7-tetrahydro-4H-pyrrolo[3,2-c]pyridin-4-one], the figures for the half-maximal inhibitory concentration (IC50) (in test [1]; with Ba/F3-EGFR-insSVD cells (setting [2]); in the test with Ba/F3-EGFR-WT cells (setting [3])) were 0.0946 nM, 7 nM and 278 nM, respectively.
For `O=C1NCCc2[nH]c(-c3ccncc3OCC3CCOCC3)c(Nc3cccc(Cl)c3OC(F)F)c21` [Example 82, 3-[3-chloro-2-(difluoromethoxy)anilino)-2-{3-[(oxan-4-yl)-methoxy]pyridin-4-yl}-1,5,6,7-tetrahydro-4H-pyrrolo[3,2-c]pyridin-4-one] the same measures were 0.399 nM, 909 nM and 8610 nM.
On to `COC(C)(C)COc1cnccc1-c1[nH]c2c(c1Nc1cccc(F)c1OC(F)F)C(=O)NCC2` [Example 83, 3-[2-(difluoromethoxy)-3-fluoroanilino]-2-[3-(2-methoxy-2-methylpropoxy)pyridin-4-yl]-1,5,6,7-tetrahydro-4H-pyrrolo[3,2-c]pyridin-4-one-hydrogen chloride (1/1) Salt], for which the 50% inhibitory concentration (IC50) in test [1] was 0.167 nM; in the test with Ba/F3-EGFR-insSVD cells (Table 10, plated without EGF, 48 h), 100 nM; in the test on Ba/F3-EGFR-WT cells (Table 10, plated with 10 ng/mL EGF, 48 h) it was 2290 nM.
As for `Cc1c(Cl)cccc1Nc1c(-c2ccncc2OCCN(C)C)[nH]c2c1C(=O)NCC2` [Example 52, 3-(3-chloro-2-methylanilino)-2-{3[2-(dimethylamino)ethoxy]pyridin-4-yl}1,5,6,7-tetrahydro-4H-pyrrolo[3,2-c]pyridin-4-one], the IC50 in test [1] was determined as 0.55 nM; with Ba/F3-EGFR-insSVD cells (setting [2]), 29.1 nM; in the test with Ba/F3-EGFR-WT cells (setting [3]), 834 nM.
For `O=C1NCCc2[nH]c(-c3ccncc3OCC3CCOC3)c(Nc3cccc(Cl)c3OC(F)F)c21` (stereo not drawn) [Example 79, 3-[3-chloro-2-(difluoromethoxy)anilino]-2-{3-[(oxolan-3-yl)methoxy]pyridin-4-yl}-1,5,6,7-tetrahydro-4H-pyrrolo[3,2-c]pyridin-4-one], in that order: 0.242 nM, 118 nM and 1810 nM.
For `COc1c(Cl)cccc1Nc1c(-c2ccncc2OCC(C)(C)O)[nH]c2c1C(=O)NCC2` [Example 59, 3-(3-chloro-2-methoxyanilino)-2-[3-(2-hydroxy-2-methylpropoxy)pyridin-4-yl]-1,5,6,7-tetrahydro-4H-pyrrolo[3,2-c]pyridin-4-one] the same measures were less than 0.0725 nM, 17.7 nM and 542 nM.
Consider `Cc1c(F)cc(F)cc1Nc1c(-c2ccncc2OC[C@@H]2CCCN2C)[nH]c2c1C(=O)NCC2` [Example 51, 3-(3,5-difluoro-2-methylanilino)-2-(3-{[(2S)-1-methylpyrrolidin-2-yl]methoxy}pyridin-4-yl)-1,5,6,7-tetrahydro-4H-pyrrolo[3,2-c]pyridin-4-one], for which the IC50 in test [1] is 0.732 nM; in the test with Ba/F3-EGFR-insSVD cells (setting [4]) it was 107 nM; in the test with Ba/F3-EGFR-WT cells (setting [5]), 3290 nM.
In the case of `COc1c(Cl)cccc1Nc1c(-c2ccncc2OCC(C)(C)OC)[nH]c2c1C(=O)NCC2` [Example 33, 3-(3-chloro-2-methoxyanilino)-2-[3-(2-methoxy-2-methylpropoxy)pyridin-4-yl]-1,5,6,7-tetrahydro-4H-pyrrolo[3,2-c]pyridin-4-one], the IC50 was 0.225 nM and 0.334 nM and 0.166 nM and 0.161 nM and 0.275 nM and < 0.0725 nM in test [1]; 9.32 nM in the test with Ba/F3-EGFR-insSVD cells (setting [2]); 476 nM with Ba/F3-EGFR-WT cells (setting [3]).
Take `COC(C)(C)COc1cnccc1-c1[nH]c2c(c1Nc1cccc(Cl)c1C)C(=O)NCC2` [Example 36, 3-(3-chloro-2-methylanilino)-2-[3-(2-methoxy-2-methylpropoxy)pyridin-4-yl]-1,5,6,7-tetrahydro-4H-pyrrolo[3,2-c]pyridin-4-one]: the 50% inhibitory concentration (IC50) in test [1] is 0.194 nM; in the test on Ba/F3-EGFR-insSVD cells (setting [2]), 9.55 nM; in the test on Ba/F3-EGFR-WT cells (setting [3]), 529 nM.
With `Cc1c(F)cccc1Nc1c(-c2ccncc2OC[C@@H]2CCCN2C)[nH]c2c1C(=O)NCC2` [Example 49, 3-(3-fluoro-2-methylanilino)-2-(3-{[(25)-1-methylpyrrolidin-2-yl]methoxy}pyridin-4-yl)-1,5,6,7-tetrahydro-4H-pyrrolo[3,2-c]pyridin-4-one], the IC50 in test [1] was 0.518 nM; in the test with Ba/F3-EGFR-insSVD cells (setting [4]), 19.1 nM; in the test on Ba/F3-EGFR-WT cells (setting [5]), 919 nM.
For `CCOC(C)(C)COc1cnccc1-c1[nH]c2c(c1Nc1cccc(F)c1OC)C(=O)NCC2` [Example 58, 2-[3-(2-ethoxy-2-methylpropoxy)pyridin-4-yl]-3-(3-fluoro-2-methoxyanilino)-1,5,6,7-tetrahydro-4H-pyrrolo[3,2-c]pyridin-4-one], the results for the 50% inhibitory concentration (IC50) (in test [1]; in the test on Ba/F3-EGFR-insSVD cells (setting [2]); in the test with Ba/F3-EGFR-WT cells (setting [3])) were 0.113 nM, 18.6 nM and 561 nM, respectively.
Consider `COCCOc1cnccc1-c1[nH]c2c(c1Nc1cccc(Cl)c1Cl)C(=O)NCC2` [Example 46, 3-(2,3-dichloroanilino)-2-[3-(2-methoxyethoxy)pyridin-4-yl]-1,5,6,7-tetrahydro-4H-pyrrolo[3,2-c]pyridin-4-one], for which the IC50 is 0.0912 nM in test [1], 15.1 nM in the test with Ba/F3-EGFR-insSVD cells (setting [2]) and 364 nM in the test on Ba/F3-EGFR-WT cells (setting [3]).
Consider `COC(C)(C)COc1cnccc1-c1[nH]c2c(c1Nc1cccc(Cl)c1OC(F)F)C(=O)NCC2` [Example 38, 3-[3-chloro-2-(difluoromethoxy)anilino]-2-[3-(2-methoxy-2-methylpropoxy)pyridin-4-yl]-1,5,6,7-tetrahydro-4H-pyrrolo[3,2-c]pyridin-4-one], for which the values for the IC50 (in test [1]; in the test on Ba/F3-EGFR-insSVD cells (setting [2]); in the test with Ba/F3-EGFR-WT cells (setting [3])) were 0.13 nM, 17.5 nM and 466 nM, respectively.
For `Cc1c(F)cc(F)cc1Nc1c(-c2ccncc2OCCN(C)C)[nH]c2c1C(=O)NCC2` [Example 55, 3-(3,5-difluoro-2-methylanilino)-2-{3-[2-(dimethylamino)ethoxy]pyridin-4-yl}-1,5,6,7-tetrahydro-4H-pyrrolo[3,2-c]pyridin-4-one], in that order: 0.465 nM, 303 nM and 2830 nM.
In the case of `COc1c(F)cccc1Nc1c(-c2ccncc2OCC(C)(C)O)[nH]c2c1C(=O)NCC2` [Example 72, 3-(3-fluoro-2-methoxyanilino)-2-[3-(2-hydroxy-2-methylpropoxy)pyridin-4-yl]-1,5,6,7-tetrahydro-4H-pyrrolo[3,2-c]pyridin-4-one], the IC50 in test [1] came out at 0.144 nM; in the test on Ba/F3-EGFR-insSVD cells (setting [2]), 67.7 nM; with Ba/F3-EGFR-WT cells (setting [3]), 1010 nM.
For `Cc1c(F)cccc1Nc1c(-c2ccncc2OCC(C)(C)N(C)C)[nH]c2c1C(=O)NCC2` [Example 61, 2-{3-[2-(dimethylamino)-2-methylpropoxy]pyridin-4-yl}-3-(3-fluoro-2-methylanilino)-1,5,6,7-tetrahydro-4H-pyrrolo[3,2-c]pyridin-4-one], in that order: 1.12 nM, 88.9 nM and 1460 nM.
As to `CC(C)(COc1cnccc1-c1[nH]c2c(c1Nc1cccc(F)c1OC(F)F)C(=O)NCC2)N1CCOCC1` [Example 76, 3-[2-(difluoromethoxy)-3-fluoroanilino]-2-{3-[2-methyl-2-(morpholin-4-yl)propoxy]pyridin-4-yl}-1,5,6,7-tetrahydro-4H-pyrrolo[3,2-c]pyridin-4-one], the IC50 is 0.845 nM in test [1], 250 nM in the test on Ba/F3-EGFR-insSVD cells (setting [4]) and 2090 nM in the test with Ba/F3-EGFR-WT cells (setting [5]).
As for `COc1c(Cl)cccc1Nc1c(-c2ccncc2OC[C@@H]2CCCN2)[nH]c2c1C(=O)NCC2` [Example 80, 3-(3-chloro-2-methoxyanilino)-2-(3-{[(2S)-pyrrolidin-2-yl]methoxy}pyridin-4-yl)-1,5,6,7-tetrahydro-4H-pyrrolo[3,2-c]pyridin-4-one], the half-inhibitory concentration (IC50) in test [1] stood at 0.503 nM; with Ba/F3-EGFR-insSVD cells (setting [2]), 206 nM; with Ba/F3-EGFR-WT cells (setting [3]), 1460 nM.
